# Laboratory results reported in patent publication US9216977B2 (The University of North Carolina at Chapel Hill, priority 2009, dated 2015).
# Where two headings read alike, the source gives them in different places.
# What was measured:
# [1] = system: A549; assay: in vitro screen against human tumor cell line A549 (lung), GI50; type: cell-based
# [2] = system: DU145; assay: in vitro screen against human tumor cell line DU-145 (prostate), GI50; type: cell-based
# [3] = system: KB; assay: in vitro screen against human tumor cell line KB (nasopharyngeal), GI50; type: cell-based; conditions: for GI50: read-out: GI50 KB
# [4] = system: HCT-8; assay: in vitro screen against human tumor cell line HCT-8 (colon), GI50; type: cell-based
# [5] = system: rats; conditions: rat, in vivo; cited from earlier work
# [6] = system: KBvin; assay: in vitro screen against KBvin cell line, GI50; type: cell-based; conditions: Homo sapiens
# [7] = system: SKBR; assay: in vitro screen against cancer cell line SKBR (breast), GI50; type: cell-based; conditions: Example 3, Table 1
# [8] = system: panel of cancer cell lines including A549 (lung), DU-145 (prostate), KB (nasopharyngeal), and HCT-8 (colon)
# [9] = system: panel of cancer cell lines including A549 (lung), DU-145 (prostate), KB (nasopharyngeal), and HCT-8 (colon); assay: cells; conditions: Homo sapiens
# [10] = Homo sapiens, A549, Example 3, Table 1, read-out: GI50 A549
# [11] = Homo sapiens, DU-145, Example 3, Table 1, read-out: GI50 DU145
# [12] = Homo sapiens, KB, Example 3, Table 1
# [13] = Example 2, Table 4, 12-aza-cryptopleurines, read-out: GI50 A549
# [14] = Example 2, Table 4, 12-aza-cryptopleurines
# [15] = Homo sapiens, A549, Example 2, Table 3, 13-aza-cryptopleurines, read-out: GI50 A549
# [16] = Homo sapiens, DU-145, Example 2, Table 3, 13-aza-cryptopleurines, read-out: GI50 DU145
# [17] = Homo sapiens, KB, Example 2, Table 3, 13-aza-cryptopleurines
# [18] = Homo sapiens, HCT-8, Example 2, Table 3, 13-aza-cryptopleurines, read-out: GI50 HCT-8
# [19] = Table 3, cells marked (KBvin) in the HCT-8 column
smiles,measurement,setting,value
"COc1ccc2c3c(c4cc(OC)c(OC)cc4c2c1)C[C@H]1CCCCN1C3 [R-cryptopleurine, reference compound]",GI50,[1]; read-out: A549 GI50,1.38 nM
same,GI50,[1]; read-out: GI50 A549,1.38 nM
same,GI50,[2]; read-out: DU145 GI50,1.59 nM
same,GI50,[2]; read-out: GI50 DU145,1.59 nM
same,KB GI50,[3],1.51 nM
same,GI50,[3],1.51 nM
same,GI50,[4]; read-out: GI50 HCT-8,1.09 nM
same,GI50,[4]; read-out: HCT-8 GI50,1.09 nM
same,toxicity in animal tests,[5],quite toxic
"COc1ccc2c3c(c4cc(OC)c(OC)cc4c2c1)C[C@H]1C[C@@H](O)CCN1C3 [Compound 13a, (13S,14aS)-13-hydroxyl-eryptopleurine]",GI50,[1]; [10],72 nM
same,GI50,[2]; [11],59 nM
same,GI50,[3]; [12],43 nM
same,GI50,"[6]; KBVIN, Example 3, Table 1",78 nM
same,GI50,[7],295 nM
same,range of cytotoxicity / anticancer activity in words,[8],low nM range
"COc1ccc2c3c(c4cc(OC)c(OC)cc4c2c1)C[C@H]1CC[C@H](O)CN1C3 [Compound 19b, (12S,14aR)-12-hydroxyl-cryptopleurine]",GI50,[1]; [10],2510 nM
same,GI50,[2]; [11],2250 nM
same,GI50,[3]; [12],2250 nM
same,GI50,"[6]; KBVIN, Example 3, Table 1",3070 nM
same,GI50,[7],6440 nM
same,range of cytotoxicity / anticancer activity in words,[8],low μM range
"COc1ccc2c3c(c4cc(OC)c(OC)cc4c2c1)C[C@H]1C[C@H](O)CN1C3 [Compound 9b, (12S,13aS)-12-hydroxyl-antofine]",GI50,[1]; [10],2270 nM
same,GI50,[2]; [11],1800 nM
same,GI50,[3]; [12],1810 nM
same,GI50,"[6]; KBVIN, Example 3, Table 1",2210 nM
same,range of cytotoxicity / anticancer activity in words,[8],middle nM to low μM range
"COc1ccc2c3c(c4cc(OC)c(OC)cc4c2c1)C[C@H]1CC(=O)CN1C3 [Compound 8, (S)-12-oxo-antofine]",GI50,[1]; [10],290 nM
same,GI50,[2]; [11],710 nM
same,GI50,[3]; [12],500 nM
same,GI50,"[6]; KBVIN, Example 3, Table 1",430 nM
same,range of cytotoxicity / anticancer activity in words,[8],middle nM to low μM range
"COc1ccc2c3c(c4cc(OC)c(OC)cc4c2c1)C[C@H]1CC[C@@H](O)CN1C3 [Compound 19a, (12R,14aR)-12-hydroxyl-cryptopleurine]",GI50,[1]; [10],82 nM
same,GI50,[2]; [11],66 nM
same,GI50,[3]; [12],33 nM
same,GI50,"[6]; KBVIN, Example 3, Table 1",45 nM
same,GI50,[7],348 nM
same,range of cytotoxicity / anticancer activity in words,[8],lower nM range
"COc1ccc2c3c(c4cc(OC)c(OC)cc4c2c1)C[C@H]1CN(C)CN1C3 [Compound 3h, (S)-12-aza-12N-methyl-antofine]",GI50,"[1]; Example 2, Table 2, 12-aza-antofines, read-out: GI50 A549",660 nM
same,GI50,"[2]; Example 2, Table 2, 12-aza-antofines, read-out: GI50 DU145",2030 nM
same,GI50,"[3]; Example 2, Table 2, 12-aza-antofines",1720 nM
same,GI50,"[4]; Example 2, Table 2, 12-aza-antofines, read-out: GI50 HCT-8",1000 nM
same,melting point,,182 to 184 °C
same,GI50,[9]; read-out: range of activities (GI50) over the cell line panel,660 to 2030 nM
"COc1ccc2c3c(c4cc(OC)c(OC)cc4c2c1)C[C@H]1CCN(CC(C)C)CN1C3 [Compound 11c, (S)-12-aza-12N-isobutyl-cryptopleurine]",GI50,[1]; [13],1520 nM
same,GI50,"[2]; Homo sapiens, DU-145, Example 2, Table 4, 12-aza-cryptopleurines, read-out: GI50 DU145",2300 nM
same,GI50,[3]; [14],5060 nM
same,GI50,"[4]; Homo sapiens, HCT-8, Example 2, Table 4, 12-aza-cryptopleurines, read-out: GI50 HCT-8",1360 nM
same,melting point,,177 to 179 °C
"COc1ccc2c3c(c4cc(OC)c(OC)cc4c2c1)C[C@H]1CN(C2CC2)CCN1C3 [Compound 8h, (S)-13-aza-13N-cyclopropyl-cryptopleurine]",GI50,[1]; [15],23200 nM
same,GI50,[2]; [16],17900 nM
same,GI50,[3]; [17],23400 nM
same,GI50,[4]; [18],13000 nM
same,melting point,,115 to 117 °C
"COc1ccc2c3c(c4cc(OC)c(OC)cc4c2c1)C[C@H]1C[C@@H](O)CN1C3 [Compound 9a, (12R,13aS)-12-hydroxyl-antofine]",GI50,[1]; [10],610 nM
same,GI50,[2]; [11],700 nM
same,GI50,[3]; [12],780 nM
same,GI50,"[6]; KBVIN, Example 3, Table 1",640 nM
same,range of cytotoxicity / anticancer activity in words,[8],middle nM to low μM range
same,activity of 12R isomer compared with 12S isomer (9b),[8]; Example 3,3 fold
"COc1ccc2c3c(c4cc(OC)c(OC)cc4c2c1)C[C@H]1CN(CC2CC2)CCN1C3 [Compound 8g, (S)-13-aza-13N-cyclopropylmethyl-cryptopleurine]",GI50,[1]; [15],790 nM
same,GI50,[2]; [16],2940 nM
same,GI50,[3]; [17],6570 nM
same,GI50,[4]; [18],250 nM
same,melting point,,160 to 162 °C
"COc1ccc2c3c(c4cc(OC)c(OC)cc4c2c1)C[C@H]1C[C@H](O)CCN1C3 [Compound 13b, (13R,14aS)-13-hydroxyl-cryptopleurine]",GI50,[1]; [10],22 nM
same,GI50,[2]; [11],11 nM
same,GI50,[3]; [12],23 nM
same,GI50,"[6]; KBVIN, Example 3, Table 1",25 nM
same,GI50,[7],72 nM
same,range of cytotoxicity / anticancer activity in words,[8],low nM range
"COc1ccc2c3c(c4cc(OC)c(OC)cc4c2c1)CC1CN(Cc2ccccc2)CN1C3 (stereo in doubt) [Compound 3j, (R)-12-aza-12N-benzyl-antofine]",GI50,"[1]; Homo sapiens, A549, Example 2, Table 2, 12-aza-antofines, read-out: GI50 A549",2680 nM
same,GI50,"[2]; Homo sapiens, DU-145, Example 2, Table 2, 12-aza-antofines, read-out: GI50 DU145",4620 nM
same,GI50,"[3]; Homo sapiens, KB, Example 2, Table 2, 12-aza-antofines",3410 nM
same,GI50,"[6]; Table 2, cells marked (KBvin) in the HCT-8 column",1870 nM
same,melting point,,95 to 97 °C
"COc1ccc2c3c(c4cc(OC)c(OC)cc4c2c1)CC1CN(Cc2ccccc2)CCN1C3 (stereo in doubt) [Compound 8n, (R)-13-aza-13N-benzyl-cryptopleurine]",GI50,[1]; [15],16400 nM
same,GI50,[2]; [16],11900 nM
same,GI50,[3]; [17],12100 nM
same,GI50,[6]; [19],7640 nM
same,melting point,,86 to 88 °C
"COc1ccc2c3c(c4cc(OC)c(OC)cc4c2c1)CC1CN(CC(C)C)CCN1C3 (stereo in doubt) [Compound 8m, (R)-13-aza-13N-isobutyl-cryptopleurine]",GI50,[1]; [15],12900 nM
same,GI50,[2]; [16],12200 nM
same,GI50,[3]; [17],11200 nM
same,GI50,[6]; [19],9960 nM
same,melting point,,175 to 177 °C
"CCN1CCN2Cc3c(c4cc(OC)c(OC)cc4c4cc(OC)ccc34)C[C@H]2C1 [Compound 8b, (S)-13-aza-13N-ethyl-cryptopleurine]",GI50,[1]; [15],7130 nM
same,GI50,[2]; [16],10500 nM
same,GI50,[3]; [17],8240 nM
same,GI50,[4]; [18],9450 nM
same,melting point,,83 to 85 °C
COc1cc2c3c(c4cc(OC)c(OC)cc4c2cc1OC)CN1CCC[C@@H]1C3 [tylophorine],generally non-toxic dose,[5],up to 500 mg/kg
"COc1ccc2c3c(c4cc(OC)c(OC)cc4c2c1)C[C@H]1CCC(=O)CN1C3 [Compound 18, (R)-12-oxo-cryptopleurine]",GI50,[1]; [10],910 nM
same,GI50,[2]; [11],1700 nM
same,GI50,[3]; [12],734 nM
same,GI50,"[6]; KBVIN, Example 3, Table 1",1480 nM
same,GI50,[7],3340 nM
"COc1ccc2c3c(c4cc(OC)c(OC)cc4c2c1)C[C@H]1CCOCN1C3 [Compound 13, (S)-12-oxa-cryptopleurine]",GI50,"[1]; Homo sapiens, A549, Example 2, Table 5, read-out: GI50 A549",1790 nM
same,GI50,"[2]; Homo sapiens, DU-145, Example 2, Table 5, read-out: GI50 DU145",1820 nM
same,GI50,"[3]; Homo sapiens, KB, Example 2, Table 5",1660 nM
same,GI50,"[4]; Homo sapiens, HCT-8, Example 2, Table 5, read-out: GI50 HCT-8",1450 nM
same,GI50,[9]; read-out: average GI50,1000 to 2000 nM
"COc1ccc2c3c(c4cc(OC)c(OC)cc4c2c1)CC1CCN(CC(C)C)CN1C3 (stereo in doubt) [Compound 11g, (R)-12-aza-12N-isobutyl-cryptopleurine]",GI50,[1]; [13],5110 nM
same,GI50,"[2]; Example 2, Table 4, 12-aza-cryptopleurines, read-out: GI50 DU145",1660 nM
same,GI50,[3]; [14],1450 nM
same,GI50,"[6]; Table 4, cell marked (KBvin) in the HCT-8 column",7320 nM
same,melting point,,175 to 177 °C
